Results as given in US20050250801A1, “Method of treating cancer with azaspirane compositions” (priority 2003, published 2005).
Where two headings read alike, the source gives them in different places.

Tests used:
Assay in all cases: NCI in vitro SRB assay, Melanoma
Type in all cases: cell-based
[1] = test system: SK-MEL-2; conditions: for CC50 / GI50: Homo sapiens
Procedure: (§1) An in vitro assay which tested the ability of N,N,-diethyl-8,8-dipropyl-2-azaspiro[4,5]decane-2-propanamine dimaleate (Compound 1) to inhibit the growth of known cancer cell lines was performed by the National Cancer Institute in accordance with standard procedures. See: Lin, Z. X., Hoult, J. R., and Raman, A. Sulphorhodamine B assay for measuring proliferation of a pigmented melanocyte cell line and its application to the evaluation of crude drugs used in the treatment of vitiligo. J Ethnopharmacol. 66: 141-150, 1999. Briefly, selected tumor cell lines were cultured in media containing five different concentrations of Compound 1. After 48 hours of continuous exposure, a sulforhodamine B (SRB) assay was used to estimate cell viability or growth via optical measurements.
(§2) From the measurements, the following values were determined: 1) the concentration of Compound 1 at which a tumor cell growth inhibition of 50% (relative to control) occurs (GI50), 2) the concentration of Compound 1 at which no growth occurs (total growth inhibition, TGI), and 3) the concentration of Compound 1 at which the […] (LC 50). […] FIG. 6 illustrates, graphically, tumor cell growth as a function of Compound 1 concentration of the scanned tumor cell lines.

[2] = test system: UACC-62; conditions: for CC50 / GI50: Homo sapiens
Procedure: as §1, §2

[3] = test system: MALME-3M; conditions: for CC50 / GI50: Homo sapiens, Malme-3M
Procedure: as §1, §2

[4] = test system: UACC-257; conditions: for CC50 / GI50: Homo sapiens
Procedure: as §1, §2

[5] = test system: SK-MEL-28; conditions: for CC50 / GI50: Homo sapiens
Procedure: as §1, §2

[6] = test system: M14; conditions: for CC50 / GI50: Homo sapiens
Procedure: as §1, §2

[7] = test system: LOX IMVI; conditions: for GI50 / CC50: Homo sapiens
Procedure: as §1, §2

[8] = test system: SK-MEL-5; conditions: for CC50 / GI50: Homo sapiens
Procedure: as §1, §2

[9] = SK-MEL-2, Log10 conc -4.0 Moles/L
[10] = SK-MEL-2, Log10 conc -5.0 Moles/L
[11] = SK-MEL-2, Log10 conc -6.0 Moles/L
[12] = SK-MEL-2, Log10 conc -7.0 Moles/L
[13] = SK-MEL-2, Log10 conc -8.0 Moles/L
[14] = UACC-62, Log10 conc -4.0 Moles/L
[15] = UACC-62, Log10 conc -5.0 Moles/L
[16] = UACC-62, Log10 conc -6.0 Moles/L
[17] = UACC-62, Log10 conc -7.0 Moles/L
[18] = UACC-62, Log10 conc -8.0 Moles/L
[19] = read-out: Log10 LC50 (converted)
[20] = read-out: Log10 GI50 (converted)
[21] = MALME-3M, Log10 conc -4.0 Moles/L
[22] = MALME-3M, Log10 conc -5.0 Moles/L
[23] = MALME-3M, Log10 conc -6.0 Moles/L
[24] = MALME-3M, Log10 conc -7.0 Moles/L
[25] = MALME-3M, Log10 conc -8.0 Moles/L
[26] = UACC-257, Log10 conc -4.0 Moles/L
[27] = UACC-257, Log10 conc -5.0 Moles/L
[28] = UACC-257, Log10 conc -6.0 Moles/L
[29] = UACC-257, Log10 conc -7.0 Moles/L
[30] = UACC-257, Log10 conc -8.0 Moles/L
[31] = SK-MEL-28, Log10 conc -4.0 Moles/L
[32] = SK-MEL-28, Log10 conc -5.0 Moles/L
[33] = SK-MEL-28, Log10 conc -6.0 Moles/L
[34] = SK-MEL-28, Log10 conc -7.0 Moles/L
[35] = SK-MEL-28, Log10 conc -8.0 Moles/L
[36] = SK-MEL-5, Log10 conc -4.0 Moles/L
[37] = SK-MEL-5, Log10 conc -5.0 Moles/L
[38] = SK-MEL-5, Log10 conc -6.0 Moles/L
[39] = SK-MEL-5, Log10 conc -7.0 Moles/L
[40] = SK-MEL-5, Log10 conc -8.0 Moles/L

For `CCCC1(CCC)CCC2(CCN(CCCN(CC)CC)C2)CC1.O=C(O)/C=C\C(=O)O.O=C(O)/C=C\C(=O)O` [Compound 1, N,N,-diethyl-8,8-dipropyl-2-azaspiro[4,5]decane-2-propanamine dimaleate], the CC50 ([1]; SK-MEL-2, read-out: LC50) was greater than 100 µM, the CC50 ([1]; SK-MEL-2, read-out: Log10 LC50 (converted)) was greater than 100 µM and the GI50 ([1]; SK-MEL-2, read-out: GI50) was 3.45 µM. The GI50 ([1]; SK-MEL-2, read-out: Log10 GI50 (converted)) was 3.47 µM, the “Log10 TGI” value ([1]; SK-MEL-2) was greater than −4.00 and the TGI ([1]; SK-MEL-2) was greater than 100 µM. The “Mean Optical Densities” value [1, 9] was 0.168, the “Percent Growth” value [1, 9] was 7% and the “Mean Optical Densities” value [1, 10] was 0.167. The “Percent Growth” value [1, 10] was 7%, the “Mean Optical Densities” value [1, 11] was 1.199 and the “Percent Growth” value [1, 11] was 100%. For the same compound, the “Mean Optical Densities” value [1, 12] was 1.191, the “Percent Growth” value [1, 12] was 99% and the “Mean Optical Densities” value [1, 13] was 1.191. The “Percent Growth” value [1, 13] was 99%, the CC50 ([2]; UACC-62, read-out: LC50) was 2530 nM and the CC50 ([2]; UACC-62, read-out: Log10 LC50 (converted)) was 2510 nM. The GI50 ([2]; UACC-62, read-out: GI50) was 218 nM, the GI50 ([2]; UACC-62, read-out: Log10 GI50 (converted)) was 219 nM and the “Log10 TGI” value ([2]; UACC-62) was −6.19. The TGI ([2]; UACC-62) was 642 nM, the “Mean Optical Densities” value [2, 14] was 0.060 and the “Percent Growth” value [2, 14] was −89%. For the same compound, the “Mean Optical Densities” value [2, 15] was 0.034, the “Percent Growth” value [2, 15] was −94% and the “Mean Optical Densities” value [2, 16] was 0.421. For the same compound, the “Percent Growth” value [2, 16] was −21%, the “Mean Optical Densities” value [2, 17] was 1.379 and the “Percent Growth” value [2, 17] was 86%. For the same compound, the “Mean Optical Densities” value [2, 18] was 1.375, the “Percent Growth” value [2, 18] was 85% and the CC50 ([3]; read-out: LC50) was 5.9 µM. For the same compound, the CC50 [3, 19] was 5.89 µM, the GI50 ([3]; read-out: GI50) was 1600 nM and the GI50 [3, 20] was 1580 nM. The “Log10 TGI” value ([3]; MALME-3M) was −5.51, the TGI ([3]; MALME-3M) was 3.07 µM and the “Mean Optical Densities” value [3, 21] was 0.084. For the same compound, the “Percent Growth” value [3, 21] was −91%, the “Mean Optical Densities” value [3, 22] was 0.089 and the “Percent Growth” value [3, 22] was −91%. For the same compound, the “Mean Optical Densities” value [3, 23] was 1.108, the “Percent Growth” value [3, 23] was 86% and the “Mean Optical Densities” value [3, 24] was 1.047. The “Percent Growth” value [3, 24] was 55%, the “Mean Optical Densities” value [3, 25] was 1.103 and the “Percent Growth” value [3, 25] was 84%. For the same compound, the CC50 ([4]; UACC-257, read-out: LC50) was 8.74 µM, the CC50 ([4]; UACC-257, read-out: Log10 LC50 (converted)) was 8.71 µM and the GI50 ([4]; UACC-257, read-out: GI50) was 1740 nM. For the same compound, the GI50 ([4]; UACC-257, read-out: Log10 GI50 (converted)) was 1740 nM, the “Log10 TGI” value ([4]; UACC-257) was −5.41 and the TGI ([4]; UACC-257) was 3.9 µM. The “Mean Optical Densities” value [4, 26] was 0.113, the “Percent Growth” value [4, 26] was −75% and the “Mean Optical Densities” value [4, 27] was 0.190. For the same compound, the “Percent Growth” value [4, 27] was −58%, the “Mean Optical Densities” value [4, 28] was 1.302 and the “Percent Growth” value [4, 28] was 84%. The “Mean Optical Densities” value [4, 29] was 1.427, the “Percent Growth” value [4, 29] was 97% and the “Mean Optical Densities” value [4, 30] was 1.403. For the same compound, the “Percent Growth” value [4, 30] was 94%, the CC50 ([5]; SK-MEL-28, read-out: LC50) was 4.86 µM and the CC50 ([5]; SK-MEL-28, read-out: Log10 LC50 (converted)) was 4.9 µM. The GI50 ([5]; SK-MEL-28, read-out: GI50) was 561 nM, the GI50 ([5]; SK-MEL-28, read-out: Log10 GI50 (converted)) was 562 nM and the “Log10 TGI” value ([5]; SK-MEL-28) was −5.72. The TGI ([5]; SK-MEL-28) was 1.89 µM, the “Mean Optical Densities” value [5, 31] was 0.026 and the “Percent Growth” value [5, 31] was −95%. For the same compound, the “Mean Optical Densities” value [5, 32] was 0.061, the “Percent Growth” value [5, 32] was −88% and the “Mean Optical Densities” value [5, 33] was 0.846. For the same compound, the “Percent Growth” value [5, 33] was 34%, the “Mean Optical Densities” value [5, 34] was 1.473 and the “Percent Growth” value [5, 34] was 98%. The “Mean Optical Densities” value [5, 35] was 1.301, the “Percent Growth” value [5, 35] was 80% and the CC50 ([6]; M14, read-out: LC50) was 1800 nM. For the same compound, the CC50 ([6]; M14, read-out: Log10 LC50 (converted)) was 1820 nM, the GI50 ([6]; M14, read-out: GI50) was 203 nM and the GI50 ([6]; M14, read-out: Log10 GI50 (converted)) was 204 nM. The “Log10 TGI” value ([6]; M14) was −6.32, the TGI ([6]; M14) was 477 nM and the “Mean Optical Densities” value ([6]; M14, Log10 conc -4.0 Moles/L) was 0.109. For the same compound, the “Percent Growth” value ([6]; M14, Log10 conc -4.0 Moles/L) was −61%, the “Mean Optical Densities” value ([6]; M14, Log10 conc -5.0 Moles/L) was 0.086 and the “Percent Growth” value ([6]; M14, Log10 conc -5.0 Moles/L) was −69%. For the same compound, the “Mean Optical Densities” value ([6]; M14, Log10 conc -6.0 Moles/L) was 0.158, the “Percent Growth” value ([6]; M14, Log10 conc -6.0 Moles/L) was −43% and the “Mean Optical Densities” value ([6]; M14, Log10 conc -7.0 Moles/L) was 0.838. The “Percent Growth” value ([6]; M14, Log10 conc -7.0 Moles/L) was 92%, the “Mean Optical Densities” value ([6]; M14, Log10 conc -8.0 Moles/L) was 0.884 and the “Percent Growth” value ([6]; M14, Log10 conc -8.0 Moles/L) was 99%. The “Log10 TGI” value [7] was −5.74, the TGI [7] was 1.84 µM and the GI50 ([7]; read-out: GI50) was 515 nM. For the same compound, the CC50 ([7]; read-out: LC50) was 4.29 µM, the GI50 [7, 20] was 513 nM and the CC50 [7, 19] was 4.27 µM. The “Mean Optical Densities” value ([7]; Log10 conc -4.0 Moles/L) was −0.030, the “Percent Growth” value ([7]; Log10 conc -4.0 Moles/L) was −100% and the “Mean Optical Densities” value ([7]; Log10 conc -5.0 Moles/L) was −0.044. The “Percent Growth” value ([7]; Log10 conc -5.0 Moles/L) was −100%, the “Mean Optical Densities” value ([7]; Log10 conc -6.0 Moles/L) was 0.595 and the “Percent Growth” value ([7]; Log10 conc -6.0 Moles/L) was 36%. For the same compound, the “Mean Optical Densities” value ([7]; Log10 conc -7.0 Moles/L) was 1.037, the “Percent Growth” value ([7]; Log10 conc -7.0 Moles/L) was 85% and the “Mean Optical Densities” value ([7]; Log10 conc -8.0 Moles/L) was 1.072. For the same compound, the “Percent Growth” value ([7]; Log10 conc -8.0 Moles/L) was 89%, the CC50 ([8]; SK-MEL-5, read-out: LC50) was 5.25 µM and the CC50 ([8]; SK-MEL-5, read-out: Log10 LC50 (converted)) was 5.25 µM. For the same compound, the GI50 ([8]; SK-MEL-5, read-out: GI50) was 1280 nM, the GI50 ([8]; SK-MEL-5, read-out: Log10 GI50 (converted)) was 1290 nM and the “Log10 TGI” value ([8]; SK-MEL-5) was −5.59. The TGI ([8]; SK-MEL-5) was 2.59 µM, the “Mean Optical Densities” value [8, 36] was −0.001 and the “Percent Growth” value [8, 36] was −100%. The “Mean Optical Densities” value [8, 37] was 0.021, the “Percent Growth” value [8, 37] was −96% and the “Mean Optical Densities” value [8, 38] was 1.420. The “Percent Growth” value [8, 38] was 68%, the “Mean Optical Densities” value [8, 39] was 1.797 and the “Percent Growth” value [8, 39] was 95%. For the same compound, the “Mean Optical Densities” value [8, 40] was 1.779 and the “Percent Growth” value [8, 40] was 93%.
